Where “and” joins values, the source holds several entries; their conditions need not be identical. Identical values can stand only once.
Molecular target: human ICMT (Homo sapiens (Human), UniProt O60725)
Test: ICMT biochemical assay (Methyltransferase-Glo)
Description: Recombinant human ICMT was prepared by infection of Sf9 cells with a recombinant baculovirus containing the entire open reading frame of the human ICMT cDNA.
Cells producing ICMT were harvested 66 hours post-infection. The cells are homogenized and resuspended in 5 mM NaHPO4 (pH 7.0), and a cocktail of protease inhibitors. The membrane was pelleted, after removal of nuclei and debris, at 100,000×g for 1 hour. Membranes were resuspended in 5 mM NaHPO4 (pH 7.0) with 5 mM EDTA at 10-12 mg/ml. The suspension was stored at −80° C. in multiple aliquots.
An ICMT enzymatic assay was developed using Promega's Methyltransferase-GloTMreagents. In the assay, ICMT catalyzes the methylation of the N-Acetyl-S-farnesyl-L-cysteine by transferring a methyl group from SAM to the farnesylated cysteine and further converts the SAM to SAH. The methyltransferase activity is measured based on the amount of SAH produced from the reaction through the use of coupling enzymes that convert the SAH to ATP. The MTase-Glo detection solution then catalyzes the formation of light from ATP.
A final concentration of 2.0 μM and 20 μM of SAM and peptide were added and further incubated for 90 minutes at room temperature before adding the MTase Glo and detection reagent. Reaction signals were detected using microplate readers on luminescent mode (Satire Tecan). The IC50 was determined by nonlinear regression, using GraphPad Prism version, 5.03.

[1] = ICMT membrane extract from Sf-9 cells, 30 min preincubation, 90 min reaction

Sequence of human ICMT (O60725 whole entry): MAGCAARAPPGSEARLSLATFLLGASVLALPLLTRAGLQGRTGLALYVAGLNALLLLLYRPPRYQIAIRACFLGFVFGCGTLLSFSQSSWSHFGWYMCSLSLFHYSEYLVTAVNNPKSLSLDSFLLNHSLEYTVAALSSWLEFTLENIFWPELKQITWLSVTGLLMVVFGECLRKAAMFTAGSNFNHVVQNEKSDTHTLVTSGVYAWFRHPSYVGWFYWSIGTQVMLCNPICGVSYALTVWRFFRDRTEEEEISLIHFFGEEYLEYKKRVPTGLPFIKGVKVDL

Structure (SMILES) | IC50 [1] | IC50 (unit (nM)) [nM]
N#Cc1ccc(OCCOc2cccc(-n3cnnc3)c2)c(F)c1 [Compound 38, 4-(2-(3-(4H-1,2,4-triazol-4-yl)phenoxy)ethoxy)-3-fluorobenzonitrile] | 310 nM | 
Cc1nccn1-c1cccc(OCC(C)Oc2ccc(C#N)cc2Cl)c1 (centres unmarked) [Compound 44, 3-chloro-4-((1-(3-(2-methyl-1H-imidazol-1-yl)phenoxy)propan-2-yl)oxy)benzonitrile] | 780 nM | 
C#Cc1ccc(OCCOc2cccc(-n3ccnc3C)c2)c(F)c1 [Compound 51, 1-(3-(2-(4-ethynyl-2-fluorophenoxy)ethoxy)phenyl)-2-methyl-1H-imidazole] | 20 nM | 
Cn1nccc1-c1cccc(OCCOc2ccc(F)cc2C#N)c1 [Compound 54, 5-fluoro-2-(2-(3-(1-methyl-1H-pyrazol-5-yl)phenoxy)ethoxy)benzonitrile] | 32 nM | 
Cc1ccc(OCCOc2cccc(-n3ccnc3C)c2)c(F)c1 [Compound 58, 1-(3-(2-(2-fluoro-4-methylphenoxy)ethoxy)phenyl)-2-methyl-1H-imidazole] | 60 nM | 
COc1cc(C#N)ccc1O[C@@H](C)COc1cccc(-c2ccnn2C)c1 [Compound 60, (S)-3-methoxy-4-((1-(3-(1-methyl-1H-pyrazol-5-yl)phenoxy)propan-2-yl)oxy)benzonitrile] |  | 0.81
Cc1cc(C#N)ccc1OC(C)COc1cccc(-n2ccnc2C2CC2)c1 (centres unmarked) [Compound 61, 4-((1-(3-(2-cyclopropyl-1H-imidazol-1-yl)phenoxy)propan-2-yl)oxy)-3-methylbenzonitrile] |  | 0.88
Cc1nccn1-c1cccc(OC(C)C(C)Oc2ccc(C#N)cc2F)c1 (centres unmarked) [Compound 63, 3-fluoro-4-(3-(3-(2-methyl-1H-imidazol-1-yl)phenoxy)butan-2-yloxy)benzonitrile] | 18 nM and 6 nM | 
CC(COc1cccc(-c2ccno2)c1)Oc1ccc(C#N)cc1F (centres unmarked) [Compound 64, 3-fluoro-4-((1-(3-(isoxazol-5-yl)phenoxy)propan-2-yl)oxy)benzonitrile] | 270 nM and 470 nM | 
C[C@H](COc1cccc(-c2ccno2)c1)Oc1ccc(C#N)cc1F [Compound 65, (R)-3-fluoro-4-((1-(3-(isoxazol-5-yl)phenoxy)propan-2-yl)oxy)benzonitrile] | 4670 nM and 4390 nM | 
C[C@@H](COc1cccc(-c2ccno2)c1)Oc1ccc(C#N)cc1F [Compound 66, (S)-3-fluoro-4-((1-(3-(isoxazol-5-yl)phenoxy)propan-2-yl)oxy)benzonitrile] | 180 nM and 190 nM | 
N#Cc1ccc(OCCOc2cccc(-c3cnoc3)c2)cc1 [Compound 67, 4-(2-(3-(isoxazol-4-yl)phenoxy)ethoxy)benzonitrile] | 140 nM and 100 nM | 
Cc1cc(C#N)ccc1O[C@H](C)COc1cccc(-n2ccnc2C2CC2)c1 [Compound 68, (R)-4-((1-(3-(2-cyclopropyl-1H-imidazol-1-yl)phenoxy)propan-2-yl)oxy)-3-methylbenzonitrile] | 1.5 nM and 13 nM | 
Cc1nccn1-c1cccc(OCCOc2ccc(C#N)nn2)c1 [Compound 73, 6-(2-(3-(2-methyl-1H-imidazol-1-yl)phenoxy)ethoxy)pyridazine-3-carbonitrile] | 950 nM | 
Cc1nccn1-c1cccc(OCCOc2ncc(C#N)cc2F)c1 [Compound 74, 5-fluoro-6-(2-(3-(2-methyl-1H-imidazol-1-yl)phenoxy)ethoxy)nicotinonitrile] | 65 nM | 
Cn1nccc1-c1cccc(OCCOc2ccc(C#N)cn2)c1 [Compound 75, 6-(2-(3-(1-methyl-1H-pyrazol-5-yl)phenoxy)ethoxy)nicotinonitrile] | 60 nM and 62 nM | 
N#Cc1ccc(OCCOc2ccnc(-n3ccnc3C3CC3)c2)c(F)c1 [Compound 76, 4-(2-((2-(2-cyclopropyl-1H-imidazol-1-yl)pyridin-4-yl)oxy)ethoxy)-3-fluorobenzonitrile] |  | 0.39
COc1cc(C#N)ccc1O[C@H](C)COc1cccc(-n2ccnc2C)c1 [Compound 77, (R)-3-methoxy-4-((1-(3-(2-methyl-1H-imidazol-1-yl)phenoxy)propan-2-yl)oxy)benzonitrile] |  | 0.7
Cc1nccn1-c1cccc(OC[C@H](C)Oc2ccc(C#N)cc2F)c1 [Compound 79, (S)-3-fluoro-4-((1-(3-(2-methyl-1H-imidazol-1-yl)phenoxy)propan-2-yl)oxy)benzonitrile] | 31 nM | 
Cn1nccc1-c1cccc(OCCOc2ncc(C#N)cc2F)c1 [Compound 82, 5-fluoro-6-(2-(3-(1-methyl-1H-pyrazol-5-yl)phenoxy)ethoxy)nicotinonitrile] | 210 nM and 190 nM | 
N#Cc1ccc(OCCOc2cccc(-c3cnoc3)c2)c(F)c1 [Compound 84, 3-fluoro-4-(2-(3-(isoxazol-4-yl)phenoxy)ethoxy)benzonitrile] | 28 nM | 
Cc1nccn1-c1cccc(OCCOc2ccc(C#N)cc2F)n1 [Compound 86, 3-fluoro-4-(2-((6-(2-methyl-1H-imidazol-1-yl)pyridin-2-yl)oxy)ethoxy)benzonitrile] | 17 nM | 
Cc1nccn1-c1cc(OCCOc2ncc(C#N)cc2F)ccc1F [Compound 87, 5-fluoro-6-(2-(4-fluoro-3-(2-methyl-1H-imidazol-1-yl)phenoxy)ethoxy)nicotinonitrile] | 33 nM | 
N#Cc1cnc(OCCOc2ccnc(-n3ccnc3C3CC3)c2)c(F)c1 [Compound 90, 6-(2-((2-(2-cyclopropyl-1H-imidazol-1-yl)pyridin-4-yl)oxy)ethoxy)-5-fluoronicotinonitrile] | 37 nM | 
Cc1nccn1-c1cc(OCCOc2ncc(C#N)cc2F)ccn1 [Compound 91, 5-fluoro-6-(2-((2-(2-methyl-1H-imidazol-1-yl)pyridin-4-yl)oxy)ethoxy)nicotinonitrile] | 120 nM | 
Cn1nccc1-c1cncc(OCCOc2ccc(C#N)cc2F)c1 [Compound 92, 3-fluoro-4-(2-((5-(1-methyl-1H-pyrazol-5-yl)pyridin-3-yl)oxy)ethoxy)benzonitrile] | 300 to 1000 nM | 

Further lines, results first:

IC50 [1] | IC50 (unit (nM)) [nM] | Structure (SMILES)
4.7 nM |  | Cc1cc(C#N)ccc1O[C@H](C)COc1cccc(-c2ccnn2C)c1 [Compound 39, (R)-3-methyl-4-((1-(3-(1-methyl-1H-pyrazol-5-yl)phenoxy)propan-2-yl)oxy)benzonitrile]
9.5 nM |  | Cc1cc(C#N)ccc1O[C@@H](C)COc1cccc(-c2ccnn2C)c1 [Compound 40, (S)-3-methyl-4-((1-(3-(1-methyl-1H-pyrazol-5-yl)phenoxy)propan-2-yl)oxy)benzonitrile]
12 nM |  | C[C@@H](COc1cccc(-n2ccnc2C2CC2)c1)Oc1ccc(C#N)cc1F [Compound 42, (S)-4-((1-(3-(2-cyclopropyl-1H-imidazol-1-yl)phenoxy)propan-2-yl)oxy)-3-fluorobenzonitrile]
0.64 nM |  | COc1cc(C#N)ccc1O[C@H](C)COc1cccc(-c2ccnn2C)c1 [Compound 48, (R)-3-methoxy-4-((1-(3-(1-methyl-1H-pyrazol-5-yl)phenoxy)propan-2-yl)oxy)benzonitrile]
0.3 nM |  | Cc1cc(C#N)ccc1O[C@@H](C)COc1cccc(-n2ccnc2C2CC2)c1 [Compound 49, (S)-4-((1-(3-(2-cyclopropyl-1H-imidazol-1-yl)phenoxy)propan-2-yl)oxy)-3-methylbenzonitrile]
12 nM |  | Fc1cc(Cl)ccc1OCCOc1cccc(-n2ccnc2C2CC2)c1 [Compound 50, 1-(3-(2-(4-chloro-2-fluorophenoxy)ethoxy)phenyl)-2-cyclopropyl-1H-imidazole]
3.6 nM |  | N#Cc1ccc(OCCOc2cccc(-n3ccnc3C3CC3)c2)c(N)c1 [Compound 52, 3-amino-4-(2-(3-(2-cyclopropyl-1H-imidazol-1-yl)phenoxy)ethoxy)benzonitrile]
11 nM |  | Cc1nccn1-c1cccc(OC[C@@H](C)Oc2ccc(C#N)cc2Cl)c1 [Compound 55, (R)-3-chloro-4-((1-(3-(2-methyl-1H-imidazol-1-yl)phenoxy)propan-2-yl)oxy)benzonitrile]
0.15 nM |  | Cc1nccn1-c1cccc(OC[C@H](C)Oc2ccc(C#N)cc2Cl)c1 [Compound 56, (S)-3-chloro-4-((1-(3-(2-methyl-1H-imidazol-1-yl)phenoxy)propan-2-yl)oxy)benzonitrile]
9 nM |  | Cn1nccc1-c1cccc(OCCOc2ccc(C#N)cc2)c1 [Compound 57, 4-(2-(3-(1-methyl-1H-pyrazol-5-yl)phenoxy)ethoxy)benzonitrile]
8.5 nM |  | N#Cc1ccc(OCCOc2cccc(-n3ccnc3C3CC3)c2)cc1 [Compound 62, 4-(2-(3-(2-cyclopropyl-1H-imidazol-1-yl)phenoxy)ethoxy)benzonitrile]
4.5 nM |  | COc1cc(C#N)ccc1O[C@@H](C)COc1cccc(-n2ccnc2C)c1 [Compound 72, (S)-3-methoxy-4-((1-(3-(2-methyl-1H-imidazol-1-yl)phenoxy)propan-2-yl)oxy)benzonitrile]
3.7 nM |  | N#Cc1cnc(OCCOc2cccc(-n3ccnc3C3CC3)c2)c(F)c1 [Compound 83, 6-(2-(3-(2-cyclopropyl-1H-imidazol-1-yl)phenoxy)ethoxy)-5-fluoronicotinonitrile]
15 nM |  | Cc1nccn1-c1cc(OCCOc2ccc(C#N)cc2)ccn1 [Compound 85, 4-(2-((2-(2-methyl-1H-imidazol-1-yl)pyridin-4-yl)oxy)ethoxy)benzonitrile]
2.8 nM |  | N#Cc1ccc(OCCOc2ccnc(-n3ccnc3C3CC3)c2)cc1 [Compound 89, 4-(2-((2-(2-cyclopropyl-1H-imidazol-1-yl)pyridin-4-yl)oxy)ethoxy)benzonitrile]
